Source: patent US20230113609A1, “SSTR5 ANTAGONISTS” (Kallyope, Inc., priority 2019, published 2023)

These molecules were tested against T1, human SSTR5 (Homo sapiens, UniProt P35346) (assay: Inositol phosphate accumulation assay (IP1 HTRF, antagonist mode)). Settings: CHO-K1 cells co-expressing human SSTR5 with Gqi5, SST28 agonist at concentration generating 90% of full activation.
T1 construct: expressed in transfected cells
T1 sequence (P35346 whole entry): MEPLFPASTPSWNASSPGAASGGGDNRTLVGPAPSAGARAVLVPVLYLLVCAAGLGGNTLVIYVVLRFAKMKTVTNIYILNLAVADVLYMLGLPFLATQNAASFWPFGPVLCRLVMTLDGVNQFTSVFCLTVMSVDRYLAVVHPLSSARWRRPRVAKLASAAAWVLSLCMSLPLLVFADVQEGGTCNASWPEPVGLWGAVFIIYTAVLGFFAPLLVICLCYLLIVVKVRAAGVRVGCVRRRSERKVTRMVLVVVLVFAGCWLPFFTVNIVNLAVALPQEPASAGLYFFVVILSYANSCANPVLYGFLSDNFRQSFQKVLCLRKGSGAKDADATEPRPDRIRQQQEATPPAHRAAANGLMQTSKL
Type: cell-based
Outline: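 CHO-K1 cells stably co-expressing human SSTR5 and chimeric Gqi5 were pre-incubated with compound 15 minutes at 37° C, then stimulated with SST28 (30 nM as added, about EC90) for 90 minutes. IP1 read by HTRF (665/620 nm). % inhibition normalized to Max/Min controls; IC50 and maximal inhibition from 4-parameter fit.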
`CCOc1cc(C(=O)OC)c(C2CC2)cc1CN1CCC2(CC1)CC(=O)N(c1ccc(C(=O)NCCO)cc1)C2` [Example 20, methyl 2-cyclopropyl-5-ethoxy-4-((2-(4-((2-hydroxyethyl)carbamoyl)phenyl)-3-oxo-2,8-diazaspiro[4.5]decan-8-yl)methyl)benzoate] showed an IC50 of no more than 0.1 µM.
Molecule `CCOc1cc(C(=O)OC)c(C2CC2)cc1CN1CCC2(CC1)CC(=O)N(c1ccc(C(=O)NCCCS(=O)(=O)O)cc1)C2` [Example 30, 3-(4-(8-(5-cyclopropyl-2-ethoxy-4-(methoxycarbonyl)benzyl)-3-oxo-2,8-diazaspiro[4.5]decan-2-yl)benzamido)propane-1-sulfonic acid] has an IC50 greater than 5 µM.
`CCOc1cc(C(=O)OC)c(C2CC2)cc1CN1CCC2(CC1)CC(=O)N(c1ccc(C(=O)NCCCS(N)(=O)=O)cc1)C2` [Example 44, methyl 2-cyclopropyl-5-ethoxy-4-((3-oxo-2-(4-((3-sulfamoylpropyl)carbamoyl)phenyl)-2,8-diazaspiro[4.5]decan-8-yl)methyl)benzoate] gave an IC50 of 0.1 to 1 µM.
Molecule `CCOc1cc(C(=O)OC)c(C2CC2)cc1CN1CCC2(CC1)CC(=O)N(c1ccc(C(=O)N(CCO)CCO)cc1)C2` [Example 34, methyl 4-((2-(4-(bis(2-hydroxyethyl)carbamoyl)phenyl)-3-oxo-2,8-diazaspiro[4.5]decan-8-yl)methyl)-2-cyclopropyl-5-ethoxybenzoate] has an IC50 of 1 to 5 µM.
With `CCOc1cc(-c2ccc(F)cc2)c(C2CC2)cc1CN1CCC2(CC1)CN(c1ccc(C(=O)NCCOCCO)cc1)S(=O)(=O)N2` [compound 87, 4-(8-((2-cyclopropyl-5-ethoxy-4′-fluoro-[1,1′-biphenyl]-4-yl)methyl)-2,2-dioxido-2-thia-1,3,8-triazaspiro [4.5]decan-3-yl)-N-(2-(2-hydroxyethoxy)ethyl)benzamide] the IC50 was no more than 0.1 µM.
`CCOc1cc(C(=O)OC)c(C2CC2)cc1CN1CCC2(CC1)CN(c1ccc(C(=O)NC[C@H](O)[C@@H](O)[C@H](O)[C@H](O)CO)cc1)C(=O)O2` [Example 54, methyl 2-cyclopropyl-5-ethoxy-4-((2-oxo-3-(4-(((2S,3R,4R,5R)-2,3,4,5,6-pentahydroxyhexyl)carbamoyl)phenyl)-1-oxa-3,8-diazaspiro[4.5]decan-8-yl)methyl)benzoate] gave an IC50 of no more than 0.1 µM.
`CCOc1cc(C(=O)OC)c(C2CC2)cc1CN1CCC2(CC1)CC(=O)N(c1ccc(C(=O)NCCN3CCNC3=O)cc1)C2` [Example 40, methyl 2-cyclopropyl-5-ethoxy-4-((3-oxo-2-(4-((2-(2-oxoimidazolidin-1-yl)ethyl)carbamoyl)phenyl)-2,8-diazaspiro[4.5]decan-8-yl)methyl)benzoate] showed an IC50 of 0.1 to 1 µM.
`CCOc1cc(CN2CCC3(CC2)CN(c2ccc(C(=O)NCCCC(=O)NC(CO)(CO)CO)cc2)C(=O)O3)cc(OCC)c1-c1ccc(F)cc1` [Example 5] was tested, and the IC50 was 0.1 to 1 µM.
`CCOc1cc(C(=O)OC)c(C2CC2)cc1CN1CCC2(CC1)CC(=O)N(c1ccc(C(=O)N3C[C@H](O)[C@@H](O)C3)cc1)C2` [Example 43, methyl 2-cyclopropyl-4-((2-(4-((3S,4S)-3,4-dihydroxypyrrolidine-1-caibonyl)phenyl)-3-oxo-2,8-diazaspiro[4.5]decan-8-yl)methyl)-5-ethoxy benzoate] showed an IC50 greater than 5 µM.
Work on `CCOc1cc(C(=O)OC)c(C2CC2)cc1CN1CCC2(CC1)CC(=O)N(c1ccc(C(=O)NCCNC(=O)NC(CO)CO)cc1)C2` [Example 16, methyl 2-cyclopropyl-4-((2-(4-((2-(3-(1,3-dihydroxypropan-2-yl)ureido)ethyl)carbamoyl)phenyl)-3-oxo-2,8-diazaspiro[4.5]decan-8-yl)methyl)-5-ethoxybenzoate] yielded an IC50 greater than 5 µM.
Molecule `CCOc1cc(C(=O)OC)c(C2CC2)cc1CN1CCC2(CC1)CC(=O)N(c1ccc(C(=O)NCCCC(=O)NCCO)cc1)C2` [Example 15, methyl 2-cyclopropyl-5-ethoxy-4-((2-(4-((4-((2-hydroxyethyl)amino)-4-oxobutyl)carbamoyl)phenyl)-3-oxo-2,8-diazaspiro[4.5]decan-8-yl)methyl)benzoate] has an IC50 of 1 to 5 µM.
`CCOc1cc(C(=O)OC)c(C2CC2)cc1CN1CCC2(CC1)CC(=O)N(c1ccc(C(=O)NCCNC(=O)NCCO)cc1)C2` [compound 13, Methyl 2-cyclopropyl-5-ethoxy-4-[[2-[4-[2-(2-hydroxyethylcarbamoylamino)ethylcarbamoyl]phenyl]-3-oxo-2,8-diazaspiro[4.5]decan-8-yl]methyl]benzoate] was tested, and the IC50 was greater than 5 µM.
For `CCOc1cc(C(=O)OC)c(C2CC2)cc1CN1CCC2(CC1)CC(=O)N(c1ccc(C(=O)NCCC[N+](C)(C)C)cc1)C2` [Example 28, 3-(4-(8-(5-cyclopropyl-2-ethoxy-4-(methoxycarbonyl)benzyl)-3-oxo-2,8-diazaspiro[4.5]decan-2-yl)benzamido)-N,N,N-trimethylpropan-1-aminium], the IC50 was greater than 5 µM.
With `CCOc1cc(C(=O)OC)c(C2CC2)cc1CN1CCC2(CC1)CC(=O)N(c1ccc(C(=O)NC[C@@H](O)CO)cc1)C2` [Example 36, methyl (R)-2-cyclopropyl-4-((2-(4-((2,3-dihydroxypropyl)carbamoyl)phenyl)-3-oxo-2,8-diazaspiro[4.5]decan-8-yl)methyl)-5-ethoxybenzoate] the IC50 was 0.1 to 1 µM.
With `CCOc1cc(C(=O)OC)c(C2CC2)cc1CN1CCC2(CC1)CC(=O)N(c1ccc(C(=O)NCCOCC[N+]34CCN(CC3)CC4)cc1)C2` [Example 45, 1-(2-(2-(4-(8-(5-cyclopropyl-2-ethoxy-4-(methoxycarbonyl)benzyl)-3-oxo-2,8-diazaspiro[4.5]decan-2-yl)benzamido)ethoxy)ethyl)-1,4-diazabicyclo[2.2.2]octan-1-ium] the IC50 was greater than 5 µM.
`CCOc1cc(C(=O)OC)c(C2CC2)cc1CN1CCC2(CC1)CC(=O)N(c1ccc(C(=O)NCCC(=O)O)cc1)C2` [Example 25, 3-(4-(8-(5-cyclopropyl-2-ethoxy-4-(methoxycarbonyl)benzyl)-3-oxo-2,8-diazaspiro[4.5]decan-2-yl)benzamido)propanoic acid] showed an IC50 of 0.1 to 1 µM.
`CCOc1cc(C(=O)OC)c(C2CC2)cc1CN1CCC2(CC1)CN(c1ccc(C(=O)NCCO)cc1)C(=O)N2` [Example 75, methyl 2-cyclopropyl-5-ethoxy-4-((3-(4-((2-hydroxyethyl)carbamoyl)phenyl)-2-oxo-1,3,8-triazaspiro[4.5]decan-8-yl)methyl)benzoate] was tested, and the IC50 was 0.1 to 1 µM.
`CCOc1cc(C(=O)OC)c(C2CC2)cc1CN1CCC2(CC1)CC(=O)N(c1ccc(C(=O)NCCCN)cc1)C2` [Example 46, methyl 4-((2-(4-((3-aminopropyl)carbamoyl)phenyl)-3-oxo-2,8-diazaspiro[4.5]decan-8-yl)methyl)-2-cyclopropyl-5-ethoxybenzoate] was tested, and the IC50 was greater than 5 µM.
Molecule `CCOc1cc(-c2ccc(F)cc2)c(C2CC2)cc1CN1CCC2(CC1)CN(c1ccc(C(=O)NCCOCCO)cc1)C(=O)O2` [Example 61, 4-(8-((2-cyclopropyl-5-ethoxy-4′-fluoro-[1,1′-biphenyl]-4-yl)methyl)-2-oxo-1-oxa-3,8-diazaspiro [4.5]decan-3-yl)-N-(2-(2-hydroxyethoxy)ethyl)benzamide] has an IC50 of no more than 0.1 µM.
For `CCOc1cc(CN2CCC3(CC2)CN(c2ccc(C(=O)N[C@@H](CC(=O)O)C(=O)O)cc2)C(=O)O3)cc(OCC)c1-c1ccc(F)cc1` [Example 9, (4-(8-((2,6-diethoxy-4′-fluoro-[1,1′-biphenyl]-4-yl)methyl)-2-oxo-1-oxa-3,8-diazaspiro[4.5]decan-3-yl)benzoyl)-L-aspartic acid], the IC50 was 0.1 to 1 µM.
`CCOc1cc(C(=O)OC)c(C2CC2)cc1CN1CCC2(CC1)CC(=O)N(c1ccc(C(=O)NCCCCP(=O)(O)O)cc1)C2` [Example 47, (4-(4-(8-(5-cyclopropyl-2-ethoxy-4-(methoxycarbonyl)benzyl)-3-oxo-2,8-diazaspiro[4.5]decan-2-yl)benzamido)butyl)phosphonic acid] was tested, and the IC50 was 0.1 to 1 µM.
For `CCOc1cc(C(=O)OC)c(C2CC2)cc1CN1CCC2(CC1)CN(c1ccc(C(=O)NCCCS(N)(=O)=O)cc1)C(=O)O2` [Example 59, methyl 2-cyclopropyl-5-ethoxy-4-((2-oxo-3-(4-((3-sulfamoylpropyl)carbamoyl)phenyl)-1-oxa-3,8-diazaspiro[4.5]decan-8-yl)methyl)benzoate], the IC50 was no more than 0.1 µM.
With `CCOc1cc(C(=O)OC)c(C2CC2)cc1CN1CCC2(CC1)CC(=O)N(c1ccc(C(=O)NCCCNC(N)=O)cc1)C2` [Example 39, methyl 2-cyclopropyl-5-ethoxy-4-((3-oxo-2-(4-((3-ureidopropyl)carbamoyl)phenyl)-2,8-diazaspiro[4.5]decan-8-yl)methyl)benzoate] the IC50 was 0.1 to 1 µM.
In the case of `CCOc1cc(-c2ccc(F)cc2)c(C2CC2)cc1CN1CCC2(CC1)CN(c1ccc(S(=O)(=O)NCCOCCO)cc1)C(=O)N2` [compound 85, 4-(8-((2-cyclopropyl-5-ethoxy-4′-fluoro-[1,1′-biphenyl]-4-yl)methyl)-2-oxo-1,3,8-triazaspiro[4.5]decan-3-yl)-N-(2-(2-hydroxyethoxy)ethyl)benzenesulfonamide], the IC50 is reported as no more than 0.1 µM.
Molecule `CCOc1cc(C(=O)OC)c(C2CC2)cc1CN1CCC2(CC1)CC(=O)N(c1ccc(C(=O)NC[C@H](O)CO)cc1)C2` [Example 35, methyl (S)-2-cyclopropyl-4-((2-(4-((2,3-dihydroxypropyl)carbamoyl)phenyl)-3-oxo-2,8-diazaspiro[4.5]decan-8-yl)methyl)-5-ethoxybenzoate] has an IC50 of 0.1 to 1 µM.
With `CCOc1cc(C(=O)OC)c(C2CC2)cc1CN1CCC2(CC1)CC(=O)N(c1ccc(C(=O)NCCS(=O)(=O)O)cc1)C2` [Example 29, 2-(4-(8-(5-cyclopropyl-2-ethoxy-4-(methoxycarbonyl)benzyl)-3-oxo-2,8-diazaspiro[4.5]decan-2-yl)benzamido)ethane-1-sulfonic acid] the IC50 was 0.1 to 1 µM.
